In PubChem BioAssay AID328 (DTP/NCI, 2004):
Several values for one entry are separate records, joined by “and”; a condition that tells them apart may be missing. Equal entries are not always repeated. Inconclusive results and toxic doses are left out.

Test system: BDF1 mice, P388 leukemia ip, median survival T/C
Experiment: NCI In Vivo Anticancer Drug Screen. Data for tumor model P388 Leukemia (intraperitoneal) in B6D2F1 (BDF1) mice
Settings: endpoint: median survival time, higher = longer survival
How it was run: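 Transplantable tumour in mice; compound vs vehicle dosing; survival scored; ratio of treated to control reported.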

[1] = dose: 50.0 mg/kg/injection, schedule: Q01DX009 (ip), vehicle: saline with Tween-80
[2] = dose: 100.0 mg/kg/injection, schedule: Q01DX009 (ip), vehicle: saline with Tween-80
[3] = dose: 10.0 mg/kg/injection, schedule: Q01DX009 (ip), vehicle: saline
[4] = dose: 200.0 mg/kg/injection, schedule: Q01DX009 (ip), vehicle: saline with Tween-80
[5] = dose: 100.0 mg/kg/injection, schedule: Q04DX003 (ip), vehicle: saline with Tween-80
[6] = dose: 200.0 mg/kg/injection, schedule: Q04DX003 (ip), vehicle: saline with Tween-80
[7] = dose: 400.0 mg/kg/injection, schedule: Q04DX003 (ip), vehicle: saline with Tween-80

SMILES: CCOC(=O)C1=S=C(SC)N(C)C1=O
- T/C [1]: 106 % of control and 115 % of control
- T/C [2]: 103 % of control and 116 % of control

SMILES: CCC(=N\NC(=S)NCCN(CC)CC)/C(C)=N/NC(=S)NCCN(CC)CC
- T/C (dose: 1.56 mg/kg/injection, schedule: Q01DX009 (ip), vehicle: saline): 116 % of control
- T/C (dose: 3.13 mg/kg/injection, schedule: Q01DX009 (ip), vehicle: saline): 105 % of control
- T/C (dose: 6.25 mg/kg/injection, schedule: Q01DX009 (ip), vehicle: saline): 106 % of control
- T/C (dose: 12.5 mg/kg/injection, schedule: Q01DX009 (ip), vehicle: saline): 109 % of control and 118 % of control

SMILES: COc1ccc2c(ccc[n+]2C)c1
- T/C (dose: 7.2 mg/kg/injection, schedule: Q01DX009 (ip), vehicle: saline): 104 % of control
- T/C (dose: 9.37 mg/kg/injection, schedule: Q04DX003 (ip), vehicle: saline): 91 % of control
- T/C [3]: 104 % of control
- T/C (dose: 18.75 mg/kg/injection, schedule: Q04DX003 (ip), vehicle: saline): 91 % of control
- T/C (dose: 35.0 mg/kg/injection, schedule: Q04DX003 (ip), vehicle: saline): 122 % of control
- T/C (dose: 36.7 mg/kg/injection, schedule: Q04DX003 (ip), vehicle: saline): 110 % of control
- T/C (dose: 37.5 mg/kg/injection, schedule: Q01DX009 (ip), vehicle: saline): 150 % of control and 155 % of control
- T/C (dose: 37.5 mg/kg/injection, schedule: Q04DX003 (ip), vehicle: saline): 104 % of control
- T/C (dose: 55.0 mg/kg/injection, schedule: Q04DX003 (ip), vehicle: saline): 154 % of control

SMILES: C=CCNC(=O)Cn1nnc(-c2ccccc2)n1
- T/C [1]: 86 % of control
- T/C [2]: 101 % of control
- T/C [4]: 107 % of control

SMILES: CCOCCO
- T/C (dose: 5.0 mg/kg/injection, schedule: Q01DX009 (ip), vehicle: saline): 103 % of control
- T/C (dose: 5.0 mg/kg/injection, schedule: Q04DX003 (ip), vehicle: saline): 92 % of control
- T/C [3]: 88 % of control
- T/C (dose: 10.0 mg/kg/injection, schedule: Q04DX003 (ip), vehicle: saline): 92 % of control
- T/C (dose: 20.0 mg/kg/injection, schedule: Q04DX003 (ip), vehicle: saline): 88 % of control

SMILES: N#C/C(=C\c1cc(Cl)cc(Cl)c1O)C(/C(C#N)=C/c1cc(Cl)cc(Cl)c1O)c1ccc2c(c1)OCO2 (stereo not given)
- T/C [5]: 91 % of control
- T/C [6]: 100 % of control
- T/C [7]: 108 % of control

SMILES: COC(=O)C(CSCSC)NC(=O)/C=C/c1ccccc1C (stereo not given)
- T/C [1]: 101 % of control
- T/C [2]: 98 % of control
- T/C [5]: 104 % of control
- T/C [4]: 101 % of control
- T/C [6]: 91 % of control
- T/C (dose: 400.0 mg/kg/injection, schedule: Q01DX009 (ip), vehicle: saline with Tween-80): 114 % of control
- T/C [7]: 104 % of control

SMILES: CCOC(=O)C(Cc1ccc(N(CCCl)CCCl)cc1)NC(=O)C(Cc1ccc([N+](=O)[O-])cc1)NC(C)=O (stereo not given)
- T/C (dose: 5.0 mg/kg/injection, schedule: Q04DX003 (ip), vehicle: other): 105 % of control
- T/C (dose: 10.0 mg/kg/injection, schedule: Q04DX003 (ip), vehicle: other): 96 % of control
- T/C (dose: 20.0 mg/kg/injection, schedule: Q04DX003 (ip), vehicle: other): 99 % of control
- T/C (dose: 40.0 mg/kg/injection, schedule: Q04DX003 (ip), vehicle: other): 99 % of control

SMILES: CN(c1ccccc1)S(=O)(=O)c1ccccc1
- T/C [5]: 95 % of control

SMILES: COc1ccc(C(=O)c2ccccc2)cc1OC
- T/C (dose: 100.0 mg/kg/injection, schedule: Q04DX003 (ip), vehicle: Klucel (hydroxypropylcellulose) (HPC)): 100 % of control
- T/C (dose: 400.0 mg/kg/injection, schedule: Q04DX003 (ip), vehicle: Klucel (hydroxypropylcellulose) (HPC)): 100 % of control
